The target of the experiment is T1, Angiotensin II Receptor (Bos taurus, UniProt P25104).
T1 construct: fresh adrenal glands received on crushed ice are cleaned of fatty tissues; from tissue; host or cells: beef adrenal cortex, microsomal membranes (100,000×g pellet)
T1 sequence (P25104 1-359): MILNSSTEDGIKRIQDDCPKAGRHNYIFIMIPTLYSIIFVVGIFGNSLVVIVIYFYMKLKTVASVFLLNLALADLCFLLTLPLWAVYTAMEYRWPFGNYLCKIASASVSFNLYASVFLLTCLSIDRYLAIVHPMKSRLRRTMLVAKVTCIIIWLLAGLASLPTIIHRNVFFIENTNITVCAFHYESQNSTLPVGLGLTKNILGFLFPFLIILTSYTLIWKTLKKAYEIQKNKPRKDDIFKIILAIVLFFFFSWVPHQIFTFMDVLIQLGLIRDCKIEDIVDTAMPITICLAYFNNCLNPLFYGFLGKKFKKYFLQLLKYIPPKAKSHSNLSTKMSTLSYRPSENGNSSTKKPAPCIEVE
Kind of experiment: Receptor Binding Assay: displacement of [^125 I](Sar^1,Ile^8)AngII. In kind it is beef (adrenal cortex microsomal membranes). From the text:
Beef adrenals are obtained from a local slaughter house (Maxwell-Cohen). [^125 […]. 2200 Ci/mmole, is purchased from Dupont (NEN®, Boston, Mass.). All unlabeled AngII analogs, Dimethylsulfoxide (DMSO), nucleotides, bovine serum albumin (BSA) are purchased from Sigma Chemical Co., St. Louis, Mo. U.S.A. […] Approximately sixteen (16) to twenty (20) beef adrenal glands are processed as follows: fresh adrenal glands received on crushed ice are cleaned of fatty tissues and the tough membranes encapsulating the glands are removed and discarded. The brownish tissue forming the adrenal cortex is scraped off and finely minced with scissors before homogenization. Care is taken to avoid contamination with medullary tissue during dissection. The scraped cortices are suspended in twenty volumes of an ice-cold buffer medium consisting of 10 mM Tris.HCl (pH 7.4 at 22° C.) and containing 1.0 mM EDTA and 0.2M sucrose. Unless otherwise indicated, all subsequent operations are done at 4° C. […] The homogenate is centrifuged first at low speed (3,000×g) for 10 min. […] This P2 pellet is discarded and the liquid phase is carefully decanted off in clean centrifuge tubes and recentrifuged at high speed (100,000×g) for 60 min. The translucent final pellet is harvested and combined in a small volume (20-50.0 ml) of 50.0 mM Tris.HCl buffer, pH 7.2. A 100 ul aliquot is withdrawn and the protein content of the preparation is determined by the Lowry's method (Lowry, O. H., Rosebrough, […]. and Randall, R. J., Protein measurement with Folin phenol reagent. J. Biol. Chem., 48, 265-275, 1951). The pelleted membrane is reconstituted in 50.0 mM Tris.HCl buffer containing 0.1 mM of phenylmethylsulfonyl fluoride (PMSF) to give approximately a protein concentration of 2.5 mg per ml of tissue suspension. […] In competition studies, experimental compounds are diluted in dimethylsulfoxide (DMSO) and added in 20 ul to wells before the introduction of tissue membranes. […] Assays are performed in triplicate. The wells are left undisturbed for 60 min. at room temperature. Following incubation, all wells are harvested at once with a Brandel® Harvester especially designed for a 96 well plate (Brandel® Biomedical Research & Development Labs. Inc., Gaithersburg, Md., U.S.A.). The filter discs are washed with 10×1.0 ml of cold 0.9% NaCl to remove unbound ligand. […] This method is routinely used. The filters are removed from the filter grid and counted in a Parkard® Cobra Gamma Counter for 1 min. (Packard Instrument Co., Downers Grove, Ill., U.S.A.). The binding data are analyzed by the non-linear interactive "LUNDON-1" program (LUNDON SOFTWARE Inc., Cleveland, Ohio U.S.A.).

The mark [1] stands for this setting: continuation of Table I headed BIOLOGICAL DATA, read-out: Biological Data.
Setting [2] is: read-out: Angiotensin II Receptor Binding IC50.

Counter-ions that a name gives are not always drawn. Like-named read-outs stand apart in the source and are kept apart here.

`CCCCc1nc2ccc(C3(C(=O)OC)CC4CCCN4O3)cc2c(=O)n1Cc1ccc(-c2ccccc2-c2nnn[nH]2)cc1` (mixture of isomers) [Example 78, Trans(+/-)-Methyl-2-[2-butyl-3,4-dihydro-4-oxo-3-[[2'-(1H-tetrazol-5-yl)[1,1'-biphenyl]-4-yl]methyl-6-quinazolinyl]hexahydropyrrolo[1,2-b]isoxazole-2-carboxylate]: under setting [1], the IC50 came to 144 nM.

Regarding `CCCCc1nc2ccc([C@@H]3C[C@H]4c5ccccc5CCN4O3)cc2c(=O)n1Cc1ccc(-c2ccccc2-c2nnn[nH]2)cc1` (relative stereo) [Example 63, Cis-2-Butyl-6-(1,5,6,10b-tetrahydro-2H-isoxazolo[3,2-a]isoquinolin-2-yl)-3-[[2'-(1H-tetrazol5-yl)[1,1'-biphenyl]-4-yl]methyl]-4(3H)-quinazolinone], the IC50 under setting [2] is 54 nM.

Take `CCCCc1nc2ccc([C@@]3(CC)C[C@@H]4CCCN4O3)cc2c(=O)n1Cc1ccc(-c2ccccc2-c2nnn[nH]2)cc1` (relative stereo) [Example 71, Cis-2-butyl-6-(2-ethylhexahydropyrrolo[1,2b]isoxazol-2-yl)-3-[[2'-[1-(1H-tetrazol-5-yl)][1,1'-biphenyl]-4-yl]methyl]-4(3H)-quinazolinone]: under setting [2], the IC50 was found to be 63 nM.

As to `CCCCc1nc2ccc([C@@]3(C)C[C@@H]4CCCN4O3)cc2c(=O)n1Cc1ccc(-c2ccccc2-c2nnn[nH]2)cc1` (relative stereo) [Example 73, Cis-2-Butyl-6-(hexahydro-2-methylpyrrolo[1,2-b]isoxazol-2-yl)-3-[[2'-(1H-(tetrazol-5-yl)[1,1'-biphenyl-4-yl]methyl]-4(3H)-quinazolinone sodium salt], the IC50 under setting [1] is 31 nM.

On to `CCCCc1nc2ccc(C3(C)CC4c5ccccc5CCN4O3)cc2c(=O)n1Cc1ccc(-c2ccccc2-c2nnn[nH]2)cc1` (stereo not drawn) [Example 64, Cis and Trans-2-Butyl-6-(1,5,6,10b-tetrahydro-2-methyl-2H-isoxazolo[3,2-a]isoquinolin-2-yl)-3-[[2'-(1H-tetrazol-5-yl][1,1'-biphenyl]-4-yl]methyl]-4(3H)-quinazolinone], for which the IC50 under setting [2] was 94 nM.

Source of the values: patent US5358951A, “Angiotensin II receptor blocking 2, 3, 6 substituted quinazolinones” (American Cyanamid Company, priority 1993, dated 1994).
